Reference: paper PMC11230492, “Targeting Unique Ligand Binding Domain Structural Features Downregulates DKK1 in Y537S ESR1 Mutant Breast Cancer Cells” (Research Square, 2024)

Molecular target: T1, estrogen receptor alpha (ERα) ligand binding domain (Homo sapiens, UniProt P03372, C381S/C417S/C530S/Y537S)
T1 construct: gene ESR1
T1 sequence (P03372 300-550 C381S/C417S/C530S/Y537S): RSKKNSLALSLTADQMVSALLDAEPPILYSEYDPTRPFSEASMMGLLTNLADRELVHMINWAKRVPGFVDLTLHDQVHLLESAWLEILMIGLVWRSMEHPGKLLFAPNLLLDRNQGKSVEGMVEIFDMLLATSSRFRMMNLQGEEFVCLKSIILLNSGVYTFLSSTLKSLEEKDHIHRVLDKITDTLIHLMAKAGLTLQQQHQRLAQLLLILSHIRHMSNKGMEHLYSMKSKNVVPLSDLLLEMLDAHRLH
Experiment: X-ray co-crystal structure, […] Å

O=C(c1ccccc1)N1C(c2ccc(OCC3CCN(CCCF)C3)cc2)c2ccc(O)cc2CC12CC2 (stereo not shown) [T6I-29]
X-ray co-crystal structure, 2.20 Å: we solved an x-ray co-crystal structure of T6I-29 in complex with Y537S ERα LBD
